{
  "source": "ChEMBL document CHEMBL4321812",
  "about": "“Structure-based rational design of staurosporine-based fluorescent probe with broad-ranging kinase affinity for kinase panel application” (Bioorg Med Chem Lett, 2019)",
  "key": {"CDK8/Cyclin C": {"molecular_target": "CDK8/Cyclin C (Homo sapiens, UniProt P49336)", "test": "Binding affinity to recombinant human full length N-terminal GST-tagged CDK8 co-expressed with N-terminal GST-tagged CyclinC expressed in baculovirus expression system using RNA polymerase peptide as substrate incubated for 1 hr by TR-FRET assay"}, "CDK7/Cyclin H/MNAT1": {"molecular_target": "CDK7/Cyclin H/MNAT1 (Homo sapiens, UniProt P50613)", "test": "Binding affinity to recombinant human full length N-terminal GST-tagged and N-terminal GST-tagged CDK7/cyclinH/MAT1 expressed in baculovirus expression system using CTD3 peptide as substrate incubated for 1 hr by TR-FRET assay"}, "[1]": {"molecular_target": "Ribosomal protein S6 kinase alpha-3 (Homo sapiens, UniProt P51812)", "test": "Binding affinity to recombinant human full length N-terminal GST-tagged RPS6KA3 expressed in baculovirus expression system using S6K peptide as substrate incubated for 1 hr by TR-FRET assay"}, "[2]": {"molecular_target": "Fibroblast growth factor receptor 1 (Homo sapiens, UniProt P11362)", "sequence (P11362 whole entry, the tested form may be a part)": "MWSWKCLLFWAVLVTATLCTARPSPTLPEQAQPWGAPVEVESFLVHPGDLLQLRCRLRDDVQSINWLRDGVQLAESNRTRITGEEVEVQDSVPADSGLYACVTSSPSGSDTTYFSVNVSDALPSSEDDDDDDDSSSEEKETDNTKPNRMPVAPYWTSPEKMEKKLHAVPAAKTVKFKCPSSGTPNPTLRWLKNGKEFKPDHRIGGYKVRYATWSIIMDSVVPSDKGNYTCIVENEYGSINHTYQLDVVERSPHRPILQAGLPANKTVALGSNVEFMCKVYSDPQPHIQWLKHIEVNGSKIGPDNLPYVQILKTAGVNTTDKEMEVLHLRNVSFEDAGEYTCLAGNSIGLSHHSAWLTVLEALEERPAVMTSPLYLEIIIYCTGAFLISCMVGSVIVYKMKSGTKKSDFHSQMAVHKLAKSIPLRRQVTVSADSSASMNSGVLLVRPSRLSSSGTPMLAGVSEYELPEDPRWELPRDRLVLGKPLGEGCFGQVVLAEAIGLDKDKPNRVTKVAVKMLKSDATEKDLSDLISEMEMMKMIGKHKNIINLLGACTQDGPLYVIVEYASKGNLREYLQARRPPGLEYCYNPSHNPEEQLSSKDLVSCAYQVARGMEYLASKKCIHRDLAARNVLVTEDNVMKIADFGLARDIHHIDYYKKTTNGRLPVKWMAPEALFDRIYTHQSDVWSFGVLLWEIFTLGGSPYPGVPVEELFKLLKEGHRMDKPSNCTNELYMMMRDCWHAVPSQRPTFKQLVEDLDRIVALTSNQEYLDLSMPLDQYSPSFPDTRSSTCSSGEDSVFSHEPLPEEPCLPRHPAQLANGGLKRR", "test": "Binding affinity to recombinant N-terminal His-FLAG-GST-tagged FGFR1 (unknown origin) (396 to 820 residues) expressed in baculovirus infected Sf9 insect cells incubated for 1 hr by TR-FRET assay"}, "[3]": {"molecular_target": "cAMP-dependent protein kinase catalytic subunit beta (Homo sapiens, UniProt P22694)", "test": "Binding affinity to recombinant full-length N-terminal His-FLAG-GST-tagged PRKACB (unknown origin) expressed in baculovirus infected Sf9 insect cells incubated for 1 hr by TR-FRET assay"}, "[4]": {"molecular_target": "High affinity nerve growth factor receptor (Homo sapiens, UniProt P04629)", "test": "Binding affinity to recombinant full-length N-terminal His-FLAG-GST-tagged NTRK1 (unknown origin) (436 to 790 residues) expressed in baculovirus infected Sf9 insect cells incubated for 1 hr by TR-FRET assay"}, "[5]": {"molecular_target": "Mitogen-activated protein kinase kinase kinase kinase 2 (Homo sapiens, UniProt Q12851)", "test": "Binding affinity to recombinant full-length N-terminal His-FLAG-GST-tagged MAP4K2 (unknown origin) expressed in baculovirus infected Sf9 insect cells incubated for 1 hr by TR-FRET assay"}, "[6]": {"molecular_target": "Serine/threonine-protein kinase TNNI3K (Homo sapiens, UniProt Q59H18)", "test": "Binding affinity to recombinant N-terminal His-FLAG-GST-tagged TNNI3K (unknown origin) (1 to 727 residues) expressed in baculovirus infected Sf9 insect cells incubated for 1 hr by TR-FRET assay"}, "[7]": {"molecular_target": "Serine/threonine-protein kinase Sgk1 (Homo sapiens, UniProt O00141)", "test": "Binding affinity to recombinant full-length N-terminal His-FLAG-GST-tagged SGK1 (unknown origin) (60 to 431 residues) expressed in baculovirus infected Sf9 insect cells incubated for 1 hr by TR-FRET assay"}, "[8]": {"molecular_target": "Fibroblast growth factor receptor 3 (Homo sapiens, UniProt P22607)", "test": "Binding affinity to recombinant N-terminal His-FLAG-GST-tagged FGFR3 (unknown origin) (436 to 806 residues) expressed in baculovirus infected Sf9 insect cells incubated for 1 hr by TR-FRET assay"}, "[9]": {"molecular_target": "Hepatocyte growth factor receptor (Homo sapiens, UniProt P08581)", "test": "Binding affinity to recombinant full-length N-terminal His-FLAG-GST-tagged MET (unknown origin) (956 to 1390 residues) expressed in baculovirus infected Sf9 insect cells incubated for 1 hr by TR-FRET assay"}, "[10]": {"molecular_target": "Mitogen-activated protein kinase kinase kinase 7 (Homo sapiens, UniProt O43318)", "test": "Binding affinity to recombinant full-length N-terminal His-FLAG-tagged MAP3K7 (unknown origin) expressed in baculovirus infected Sf9 insect cells incubated for 1 hr by TR-FRET assay"}, "[11]": {"molecular_target": "Serine/threonine-protein kinase SIK2 (Homo sapiens, UniProt Q9H0K1)", "sequence (Q9H0K1 whole entry)": "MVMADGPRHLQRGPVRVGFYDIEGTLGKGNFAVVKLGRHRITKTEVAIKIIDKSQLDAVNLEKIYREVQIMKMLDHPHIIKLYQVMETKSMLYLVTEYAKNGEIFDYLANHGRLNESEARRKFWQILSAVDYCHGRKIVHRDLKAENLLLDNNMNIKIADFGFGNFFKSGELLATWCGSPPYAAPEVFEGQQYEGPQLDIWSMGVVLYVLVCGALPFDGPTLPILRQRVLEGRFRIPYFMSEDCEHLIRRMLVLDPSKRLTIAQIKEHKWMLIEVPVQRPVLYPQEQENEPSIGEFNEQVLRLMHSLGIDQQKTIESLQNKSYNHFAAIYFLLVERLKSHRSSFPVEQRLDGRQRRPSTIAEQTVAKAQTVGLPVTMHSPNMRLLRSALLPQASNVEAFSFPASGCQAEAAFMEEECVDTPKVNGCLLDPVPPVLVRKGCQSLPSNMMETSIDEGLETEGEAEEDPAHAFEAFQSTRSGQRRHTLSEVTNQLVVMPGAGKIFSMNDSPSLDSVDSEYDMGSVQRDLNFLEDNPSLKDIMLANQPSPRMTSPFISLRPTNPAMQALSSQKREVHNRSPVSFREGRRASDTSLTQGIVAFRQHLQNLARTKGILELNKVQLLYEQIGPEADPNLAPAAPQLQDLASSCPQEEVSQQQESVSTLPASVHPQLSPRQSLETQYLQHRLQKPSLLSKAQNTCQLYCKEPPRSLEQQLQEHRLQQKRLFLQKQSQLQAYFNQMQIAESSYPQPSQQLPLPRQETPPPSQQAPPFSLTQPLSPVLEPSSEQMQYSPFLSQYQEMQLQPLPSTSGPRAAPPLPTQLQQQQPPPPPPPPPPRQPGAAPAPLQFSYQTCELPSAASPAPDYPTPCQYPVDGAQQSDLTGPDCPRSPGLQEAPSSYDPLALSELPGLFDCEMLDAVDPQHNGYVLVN", "test": "Binding affinity to recombinant full-length N-terminal His-FLAG-GST-tagged SIK2 (unknown origin) expressed in baculovirus infected Sf9 insect cells incubated for 1 hr by TR-FRET assay"}, "[12]": {"molecular_target": "Tyrosine-protein kinase Blk (Homo sapiens, UniProt P51451)", "sequence (P51451 whole entry)": "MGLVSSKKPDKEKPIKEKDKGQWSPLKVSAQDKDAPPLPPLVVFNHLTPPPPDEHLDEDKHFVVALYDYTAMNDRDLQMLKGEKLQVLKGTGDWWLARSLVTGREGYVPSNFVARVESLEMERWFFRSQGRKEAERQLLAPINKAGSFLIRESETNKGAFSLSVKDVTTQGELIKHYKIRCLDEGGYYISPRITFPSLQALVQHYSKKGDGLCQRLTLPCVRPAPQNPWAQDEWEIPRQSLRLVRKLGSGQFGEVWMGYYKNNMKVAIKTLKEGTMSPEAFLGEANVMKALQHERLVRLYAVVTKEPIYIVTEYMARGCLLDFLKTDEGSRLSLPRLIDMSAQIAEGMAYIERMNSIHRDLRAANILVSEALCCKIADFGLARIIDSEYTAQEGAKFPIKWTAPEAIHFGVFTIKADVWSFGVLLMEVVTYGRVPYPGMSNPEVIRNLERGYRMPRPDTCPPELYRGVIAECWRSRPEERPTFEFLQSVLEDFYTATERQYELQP", "test": "Binding affinity to recombinant human full length N-terminal GST-tagged BLK expressed in baculovirus expression system using srctide as substrate incubated for 1 hr by TR-FRET assay"}, "[13]": {"molecular_target": "Rho-associated protein kinase 1 (Homo sapiens, UniProt Q13464)", "test": "Binding affinity to recombinant full-length N-terminal His-FLAG-GST-tagged ROCK1 (unknown origin) (1 to 477 residues) expressed in baculovirus infected Sf9 insect cells incubated for 1 hr by TR-FRET assay"}, "[14]": {"molecular_target": "Mitogen-activated protein kinase kinase kinase 2 (Homo sapiens, UniProt Q9Y2U5)", "test": "Binding affinity to recombinant full-length N-terminal His-FLAG-GST-tagged MAP3K2 (unknown origin) (337 to 620 residues) expressed in baculovirus infected Sf9 insect cells incubated for 1 hr by TR-FRET assay"}, "[15]": {"molecular_target": "Calcium/calmodulin-dependent protein kinase type II subunit gamma (Homo sapiens, UniProt Q13555)", "test": "Binding affinity to recombinant full-length N-terminal His-FLAG-GST-tagged CAMK2G (unknown origin) expressed in baculovirus infected Sf9 insect cells incubated for 1 hr in presence of calmodulin by TR-FRET assay"}, "[16]": {"molecular_target": "Serine/threonine-protein kinase 25 (Homo sapiens, UniProt O00506)", "sequence (O00506 whole entry)": "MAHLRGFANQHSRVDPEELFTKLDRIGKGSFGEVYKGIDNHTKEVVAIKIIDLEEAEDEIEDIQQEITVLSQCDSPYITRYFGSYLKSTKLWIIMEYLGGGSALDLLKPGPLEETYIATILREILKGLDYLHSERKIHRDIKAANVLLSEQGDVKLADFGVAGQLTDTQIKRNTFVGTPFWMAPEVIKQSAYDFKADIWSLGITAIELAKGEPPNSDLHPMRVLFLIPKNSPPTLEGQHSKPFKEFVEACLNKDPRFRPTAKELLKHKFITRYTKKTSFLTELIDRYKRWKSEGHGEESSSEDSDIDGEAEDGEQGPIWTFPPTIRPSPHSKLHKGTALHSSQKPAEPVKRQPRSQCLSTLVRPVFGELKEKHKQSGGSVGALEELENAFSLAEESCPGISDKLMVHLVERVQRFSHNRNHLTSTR", "test": "Binding affinity to recombinant full-length N-terminal His-FLAG-GST-tagged STK25 (unknown origin) expressed in baculovirus infected Sf9 insect cells incubated for 1 hr by TR-FRET assay"}, "Myotonin-protein kinase": {"molecular_target": "Myotonin-protein kinase (Homo sapiens, UniProt Q09013)", "sequence (Q09013 whole entry)": "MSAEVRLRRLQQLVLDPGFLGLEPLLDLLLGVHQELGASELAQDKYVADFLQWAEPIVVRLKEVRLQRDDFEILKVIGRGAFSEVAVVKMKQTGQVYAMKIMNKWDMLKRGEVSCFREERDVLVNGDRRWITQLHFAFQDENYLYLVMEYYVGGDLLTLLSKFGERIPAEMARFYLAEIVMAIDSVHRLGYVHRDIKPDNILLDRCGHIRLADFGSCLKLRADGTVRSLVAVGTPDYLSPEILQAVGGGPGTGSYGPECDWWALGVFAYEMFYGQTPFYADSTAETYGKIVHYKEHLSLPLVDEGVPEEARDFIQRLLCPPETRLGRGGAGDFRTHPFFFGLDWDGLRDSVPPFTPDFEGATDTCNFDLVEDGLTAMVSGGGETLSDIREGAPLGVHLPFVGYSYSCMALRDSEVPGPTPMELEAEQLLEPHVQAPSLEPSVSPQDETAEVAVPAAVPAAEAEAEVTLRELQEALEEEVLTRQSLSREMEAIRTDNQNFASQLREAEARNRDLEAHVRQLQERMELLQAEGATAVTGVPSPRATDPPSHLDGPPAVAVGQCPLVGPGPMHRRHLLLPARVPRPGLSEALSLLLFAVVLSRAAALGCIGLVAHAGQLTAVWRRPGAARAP", "test": "Binding affinity to recombinant full-length N-terminal His-FLAG-GST-tagged DMPK (unknown origin) expressed in baculovirus infected Sf9 insect cells incubated for 1 hr by TR-FRET assay"}, "[17]": {"molecular_target": "Protein kinase C gamma type (Homo sapiens, UniProt P05129)", "test": "Binding affinity to recombinant full-length N-terminal His-FLAG-tagged PRKCG (unknown origin) expressed in baculovirus infected Sf9 insect cells incubated for 1 hr by TR-FRET assay"}, "[18]": {"molecular_target": "RAC-gamma serine/threonine-protein kinase (Homo sapiens, UniProt Q9Y243)", "sequence (Q9Y243 whole entry, the tested form may be a part)": "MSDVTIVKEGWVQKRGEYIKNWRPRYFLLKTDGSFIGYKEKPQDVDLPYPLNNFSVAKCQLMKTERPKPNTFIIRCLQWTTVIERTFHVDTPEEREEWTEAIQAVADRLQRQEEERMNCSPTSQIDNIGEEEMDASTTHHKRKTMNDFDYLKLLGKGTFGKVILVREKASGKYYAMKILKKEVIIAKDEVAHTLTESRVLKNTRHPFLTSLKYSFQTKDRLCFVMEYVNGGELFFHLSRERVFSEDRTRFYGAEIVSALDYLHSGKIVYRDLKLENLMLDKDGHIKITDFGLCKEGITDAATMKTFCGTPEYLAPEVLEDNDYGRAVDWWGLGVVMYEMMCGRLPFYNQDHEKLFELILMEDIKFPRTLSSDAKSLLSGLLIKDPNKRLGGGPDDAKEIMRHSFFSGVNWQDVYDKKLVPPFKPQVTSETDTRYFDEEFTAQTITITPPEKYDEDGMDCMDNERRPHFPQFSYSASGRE", "test": "Binding affinity to recombinant full-length N-terminal His-FLAG-GST-tagged AKT3 (unknown origin) (108 to 479 residues) expressed in baculovirus infected Sf9 insect cells incubated for 1 hr by TR-FRET assay"}, "[19]": {"molecular_target": "Serine/threonine-protein kinase Sgk2 (Homo sapiens, UniProt Q9HBY8)", "sequence (Q9HBY8 whole entry)": "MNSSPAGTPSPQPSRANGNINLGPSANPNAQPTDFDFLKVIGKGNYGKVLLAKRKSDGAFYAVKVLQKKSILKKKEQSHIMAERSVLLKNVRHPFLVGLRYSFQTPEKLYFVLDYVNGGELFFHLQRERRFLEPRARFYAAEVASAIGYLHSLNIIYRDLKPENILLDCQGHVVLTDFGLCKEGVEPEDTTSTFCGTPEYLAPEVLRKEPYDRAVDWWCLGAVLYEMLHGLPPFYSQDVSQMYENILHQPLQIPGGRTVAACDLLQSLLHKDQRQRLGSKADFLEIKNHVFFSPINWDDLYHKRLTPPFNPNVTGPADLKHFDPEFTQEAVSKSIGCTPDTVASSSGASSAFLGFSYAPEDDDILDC", "test": "Binding affinity to recombinant full-length N-terminal His-FLAG-tagged SGK2 (unknown origin) expressed in baculovirus infected Sf9 insect cells incubated for 1 hr by TR-FRET assay"}, "[20]": {"molecular_target": "Mitogen-activated protein kinase kinase kinase 11 (Homo sapiens, UniProt Q16584)", "test": "Binding affinity to recombinant N-terminal His-FLAG-GST-tagged MAP3K11 (unknown origin) (99 to 398 residues) expressed in baculovirus infected Sf9 insect cells incubated for 1 hr by TR-FRET assay"}, "[21]": {"molecular_target": "Myosin light chain kinase, smooth muscle (Homo sapiens, UniProt Q15746)", "test": "Binding affinity to recombinant full-length N-terminal His-FLAG-GST-tagged MYLK (unknown origin) (1428 to 1771 residues) expressed in baculovirus infected Sf9 insect cells incubated for 1 hr by TR-FRET assay"}},
  "data": [
    {"compound": "CO[C@@H]1[C@H](NCCOCCOCCOCCNC(=O)CCC2=[N+]3C(=Cc4c(C)cc(C)n4[B-]3(F)F)C=C2)C[C@H]2O[C@]1(C)n1c3ccccc3c3c4c(c5c6ccccc6n2c5c31)C(=O)NC4", "values": [
      {"measurement": "Kd", "setting": "CDK8/Cyclin C", "result": 299, "unit": "nM"},
      {"measurement": "Kd", "setting": "CDK7/Cyclin H/MNAT1", "result": 894, "unit": "nM"},
      {"measurement": "Kd", "setting": "[1]", "result": 4, "unit": "nM"},
      {"measurement": "Kd", "setting": "[2]", "result": 268, "unit": "nM"},
      {"measurement": "Kd", "setting": "[3]", "result": 64, "unit": "nM"},
      {"measurement": "Kd", "setting": "[4]", "result": 35, "unit": "nM"},
      {"measurement": "Kd", "setting": "[5]", "result": 6, "unit": "nM"},
      {"measurement": "Kd", "setting": "[6]", "result": 844, "unit": "nM"},
      {"measurement": "Kd", "setting": "[7]", "result": 331, "unit": "nM"},
      {"measurement": "Kd", "setting": "[8]", "result": 409, "unit": "nM"},
      {"measurement": "Kd", "setting": "[9]", "result": 930, "unit": "nM"},
      {"measurement": "Kd", "setting": "[10]", "result": 44, "unit": "nM"},
      {"measurement": "Kd", "setting": "[11]", "result": 4, "unit": "nM"},
      {"measurement": "Kd", "setting": "[12]", "result": 63, "unit": "nM"},
      {"measurement": "Kd", "setting": "[13]", "result": 35, "unit": "nM"},
      {"measurement": "Kd", "setting": "[14]", "result": 38, "unit": "nM"},
      {"measurement": "Kd", "setting": "[15]", "result": 8, "unit": "nM"},
      {"measurement": "Kd", "setting": "[16]", "result": 444, "unit": "nM"},
      {"measurement": "Kd", "setting": "Myotonin-protein kinase", "result": 90, "unit": "nM"},
      {"measurement": "Kd", "setting": "[17]", "result": 72, "unit": "nM"},
      {"measurement": "Kd", "setting": "[18]", "result": 749, "unit": "nM"},
      {"measurement": "Kd", "setting": "[19]", "result": 1220, "unit": "nM"},
      {"measurement": "Kd", "setting": "[20]", "result": 3, "unit": "nM"},
      {"measurement": "Kd", "setting": "[21]", "result": 369, "unit": "nM"}
    ]},
    {"compound": "CO[C@@H]1[C@H](N(C)CCOCCOCCOCCNC(=O)CCC2=[N+]3C(=Cc4c(C)cc(C)n4[B-]3(F)F)C=C2)C[C@H]2O[C@]1(C)n1c3ccccc3c3c4c(c5c6ccccc6n2c5c31)C(=O)NC4", "values": [
      {"measurement": "Kd", "setting": "CDK8/Cyclin C", "result": 148, "unit": "nM"},
      {"measurement": "Kd", "setting": "CDK7/Cyclin H/MNAT1", "result": 819, "unit": "nM"},
      {"measurement": "Kd", "setting": "[1]", "result": 2, "unit": "nM"},
      {"measurement": "Kd", "setting": "[2]", "result": 643, "unit": "nM"},
      {"measurement": "Kd", "setting": "[3]", "result": 66, "unit": "nM"},
      {"measurement": "Kd", "setting": "[4]", "result": 25, "unit": "nM"},
      {"measurement": "Kd", "setting": "[5]", "result": 7, "unit": "nM"},
      {"measurement": "Kd", "setting": "[6]", "result": 1200, "unit": "nM"},
      {"measurement": "Kd", "setting": "[7]", "result": 566, "unit": "nM"},
      {"measurement": "Kd", "setting": "[8]", "result": 848, "unit": "nM"},
      {"measurement": "Kd", "setting": "[9]", "result": 812, "unit": "nM"},
      {"measurement": "Kd", "setting": "[10]", "result": 60, "unit": "nM"},
      {"measurement": "Kd", "setting": "[11]", "result": 3, "unit": "nM"},
      {"measurement": "Kd", "setting": "[12]", "result": 45, "unit": "nM"},
      {"measurement": "Kd", "setting": "[13]", "result": 26, "unit": "nM"},
      {"measurement": "Kd", "setting": "[14]", "result": 53, "unit": "nM"},
      {"measurement": "Kd", "setting": "[15]", "result": 9, "unit": "nM"},
      {"measurement": "Kd", "setting": "[16]", "result": 443, "unit": "nM"},
      {"measurement": "Kd", "setting": "Myotonin-protein kinase", "result": 94, "unit": "nM"},
      {"measurement": "Kd", "setting": "[17]", "result": 46, "unit": "nM"},
      {"measurement": "Kd", "setting": "[18]", "result": 537, "unit": "nM"},
      {"measurement": "Kd", "setting": "[19]", "result": 1770, "unit": "nM"},
      {"measurement": "Kd", "setting": "[20]", "result": 4, "unit": "nM"},
      {"measurement": "Kd", "setting": "[21]", "result": 298, "unit": "nM"}
    ]}
  ]
}
